Measurements published in US8536181B2, “Prolyl hydroxylase inhibitors” (Aerpio Therapeutics Inc., priority 2009, dated 2013).
Counter-ions that a name gives are not always drawn.

Molecular target: HIFPH2 (EGLN1) (Homo sapiens (Human), UniProt Q9GZT9)
Sequence (Q9GZT9 179-426): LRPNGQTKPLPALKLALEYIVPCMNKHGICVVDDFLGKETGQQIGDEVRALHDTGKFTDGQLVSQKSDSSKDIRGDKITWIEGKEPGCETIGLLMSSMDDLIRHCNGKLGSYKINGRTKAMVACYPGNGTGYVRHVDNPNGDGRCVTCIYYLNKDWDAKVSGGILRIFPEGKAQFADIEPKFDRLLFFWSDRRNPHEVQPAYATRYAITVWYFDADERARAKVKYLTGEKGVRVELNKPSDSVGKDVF
Assay: EGLN-1 Activity Assay (MALDI-TOF MS)
Type: biochemical
Details: recombinant human EGLN-1-179/426, HIF-1α peptide 556-574
Method: The enzyme, quantity predetermined to hydroxylate 20% of substrate in 20 minutes, is added to start the reaction. Where inhibitors are used, compounds are prepared in dimethyl sulfoxide at 10-fold final assay concentration. After 20 minutes at room temperature, the reaction is stopped by transferring 10 μL of reaction mixture to 50 μL of a mass spectrometry matrix solution (α-cyano-4-hydroxycinnamic acid, 5 mg/mL in 50% acetonitrile/0.1% TFA, 5 mM NH4PO4). Two microliters of the mixture is spotted onto a MALDI-TOF MS target plate for analysis with an Applied Biosystems (Foster City, Calif.) 4700 Proteomics Analyzer MALDI-TOF MS equipped with a Nd:YAG laser (355 nm, 3 ns pulse width, 200 Hz repetition rate). Hydroxylated peptide product is identified from substrate by the gain of 16 Da. Data defined as percent conversion of substrate to product is analyzed in GraphPad Prism 4 to calculate IC50 values.
O=c1c(O)cccn1Cc1cccc(Cl)c1 [Compound F2, 1-(3-chlorobenzyl)-3-hydroxypyridin-2(1H)-one] gave an IC50 of 5 µM. CSCCNCc1ccn(Cc2ccccc2)c(=O)c1O [Compound C33] gave an IC50 of 16 µM. For CC(C)(C)OC(=O)N1CCN(Cc2ccn(Cc3ccc(Cl)cc3)c(=O)c2O)CC1 [Compound A41, tert-butyl 4-{[1-(4-chlorobenzyl)-3-hydroxy-2-oxo-1,2-dihydropyridin-4-yl]methyl}-piperazine-1-carboxylate], the IC50 was 14 µM. With COc1ccccc1Cn1ccc(CN2CCCCCC2)c(O)c1=O [Compound A18] the IC50 was 18 µM. Compound O=c1c(O)c(CNCCCn2ccnc2)ccn1Cc1ccccc1 [Compound C35] has an IC50 of 12 µM. With O=C1NCCCCC1NCc1ccn(Cc2ccccc2)c(=O)c1O (centres unmarked) [Compound C19, 3-[(1-Benzyl-3-hydroxy-2-oxo-1,2-dihydropyridin-4-yl)methylamino]azepan-2-one] the IC50 was 12 µM. For Cc1ccc(S(=O)(=O)n2ccc(CN3CCC(N4CCCCC4)CC3)c(O)c2=O)cc1 [Compound D10, 1-(4′-Methylbenzenesulfonyl)-3-hydroxy-4-[1,4]Bipiperidinyl-1′-ylmethylpyridin-2(1H)-one], the IC50 was 4.4 µM. O=c1c(O)c(CN2CCN(c3ccc(Cl)nn3)CC2)ccn1Cc1ccccc1 [Compound B14, 1-Benzyl-3-hydroxy-4-[4-(6-chloropyridazin-3-yl)piperazin-1-ylmethyl]pyridin-2(1H)-one] showed an IC50 of 11 µM. CC(NCc1ccn(Cc2ccccc2)c(=O)c1O)c1ccccc1 (centres unmarked) [Compound C14, 1-Benzyl-3-hydroxy-4-[(1-phenylethylamino)methyl]pyridin-2(1H)-one] gave an IC50 of 12 µM. For O=c1c(O)cccn1Cc1ccc(Cl)cc1 [Compound F3, 1-(4-chlorobenzyl)-3-hydroxypyridin-2(1H)-one], the IC50 was 1.2 µM. CC1CCC(NCc2ccn(Cc3ccccc3)c(=O)c2O)CC1 (centres unmarked) [Compound C17, 1-Benzyl-3-hydroxy-4-[(4-methylcyclohexylamino)methyl]pyridin-2(1H)-one] showed an IC50 of 11 µM. With Cc1ccc(S(=O)(=O)n2ccc(CN3CCN(c4ccc(Cl)nn4)CC3)c(O)c2=O)cc1 [Compound D14, 1-(4′-Methylbenzenesulfonyl)-3-hydroxy-4-[4-(6-chloropyridazin-3-yl)piperazin-1-ylmethyl]pyridin-2(1H)-one] the IC50 was 12 µM. Work on COC[C@H]1CCCN1Cc1ccn(Cc2ccccc2)c(=O)c1O [Compound B5, 1-Benzyl-3-hydroxy-4-{[2-(methoxymethyl)pyrrolidin-1-yl]methyl}pyridin-2(1H)-one] yielded an IC50 of 9 µM. Compound “1-Benzyl-3-hydroxy-4-(benzylaminomethyl)pyridin-2(1H)-one [Compound C1]” has an IC50 of 12 µM. In the case of “1-Benzyl-3-hydroxy-4-(4-benzylpiperidin-1-ylmethyl)pyridin-2(1H)-one [Compound B9]”, the IC50 is reported as 17 µM.

Test system: phosphoglycerate kinase (PGK) expression
Assay: PGK expression in wild type murine embryonic fibroblasts
Type: cell-based
Details: 1 μM, 10 μM vs. wild type control (FIG. 12)
For O=c1c(O)cccn1Cc1cccc(Cl)c1 [Compound F2, 1-(3-chlorobenzyl)-3-hydroxypyridin-2(1H)-one], the PGK expression was “up regulation”.

Test system: S. aureus
Assay: not given
Details: Zinkernagel et al. 2008; cited from earlier work
For NC(Cn1ccc(=O)c(O)c1)C(=O)O (centres unmarked) [mimosine], the lesion size is given as “reduce the lesion size”.

Test system: Staphylococcus aureus
Assay: not given
Details: dose-dependent; Zinkernagel et al. 2008; cited from earlier work
For NC(Cn1ccc(=O)c(O)c1)C(=O)O (centres unmarked) [mimosine], the “capacity of human phagocytes and whole blood to kill Staphylococcus aureus” value is listed as “boost”.

Test system: not listed separately
Assay: solubility of pharmaceutically acceptable salts in water
Type: physicochemical
Details: not given
Method: The formulator can determine the solubility of the pharmaceutically acceptable salts of the disclosed inhibitors by any method desirable. The following is a non-limiting example of a procedure for evaluating the solubility of a salt of a disclosed inhibitor. A suspension of tert-butyl-{1[-(4-chlorobenzyl)-3-hydroxy-2-oxo-1,2-dihydropyridin-4-yl]methyl}-piperazine-1-carboxylate methanesulfonate (26.6 mg) in distilled deionized water (3.0 mL) is sonicated for 20 min with water bath temperature under 25° C. The suspension is filtered to remove any insoluble salt. The clear filtrate solution (200 μL) is diluted with distilled deionized water (800 μL) and subjected to HPLC analysis. The following are results for the pharmaceutically acceptable salts outlined in Table VII above.
With CC(C)(C)OC(=O)N1CCN(Cc2ccn(Cc3ccc(Cl)cc3)c(=O)c2O)CC1 [hydrochloride, tert-butyl-{[1-(4-chlorobenzyl)-3-hydroxy-2-oxo-1,2-dihydropyridin-4-yl]methyl}-piperazine-1-carboxylate] the “Solubility” value was 5900 µg/mL. For CC(C)(C)OC(=O)N1CCN(Cc2ccn(Cc3ccc(Cl)cc3)c(=O)c2O)CC1 [p-toluenesulfonate, tert-butyl-{[1-(4-chlorobenzyl)-3-hydroxy-2-oxo-1,2-dihydropyridin-4-yl]methyl}-piperazine-1-carboxylate], the “Solubility” value was 2300 µg/mL. In the case of “tert-butyl-{[1-(4-chlorobenzyl)-3-hydroxy-2-oxo-1,2-dihydropyridin-4-yl]methyl}-piperazine-1-carboxylate [hydrogensulfonate]”, the “Solubility” value is reported as 13200 µg/mL.

Same assay, conditions: thermodynamic from solid; distilled deionized water, sonicated 20 min, under 25° C., HPLC
CC(C)(C)OC(=O)N1CCN(Cc2ccn(Cc3ccc(Cl)cc3)c(=O)c2O)CC1 [Compound A41, tert-butyl 4-{[1-(4-chlorobenzyl)-3-hydroxy-2-oxo-1,2-dihydropyridin-4-yl]methyl}-piperazine-1-carboxylate] showed a solubility at 20 min of ~1 µg/mL. For CC(C)(C)OC(=O)N1CCN(Cc2ccn(Cc3ccc(Cl)cc3)c(=O)c2O)CC1.CS(=O)(=O)O [methanesulfonate, tert-butyl-{1[-(4-chlorobenzyl)-3-hydroxy-2-oxo-1,2-dihydropyridin-4-yl]methyl}-piperazine-1-carboxylate methanesulfonate], the solubility at 20 min was 16600 µg/mL.
